In patent US6972287B1, “Method of inhibiting amyloid protein aggregation and imaging amyloid deposits” (Pfizer Inc., priority 1999, dated 2005):
Values joined by “and” are separate entries in the source; they are usually repeats but may differ in a detail not shown here. Equal values may be shown once.

Tests used:
Aβ (1-42) = target: T1, Aβ (1-42) (Homo sapiens, UniProt P05067); experiment: BATYM assay (Aβ (1-42) aggregation, Thioflavin T fluorescence); type: biochemical; conditions: Aβ 1-42 final concentration 100 μM, 37° C., 1 day, letter = synthetic lot
T1 construct: Required Aβ (1-42) (California Peptide) was dried from its hexafluoroisopropanol (HFIP) stock solution; purchased California Peptide
T1 sequence (P05067 672-713 limits assumed): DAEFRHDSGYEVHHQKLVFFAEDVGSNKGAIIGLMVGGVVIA
Summary of the method: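 Aβ (1-42) (100 μM final, PBS pH 7.4 from DMSO) incubated with compound at 37° C. for 1 day. Aggregation read by ThT (30 μM, glycine-NaOH pH 8.5) fluorescence, ex 440/em 485 nm; inhibition as fluorescence reduction corrected for compound-alone signal, IC50 by curve fitting from two experiments in triplicate.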

Aβ(1-40) [1] = target: T2, Aβ(1-40) (Homo sapiens, UniProt P05067); experiment: BASST (Beta-Amyloid Self-Seeding, Thioflavin T), inhibitors of self-seeded amyloid fibril growth; type: biochemical; conditions: 30 μM soluble Aβ(1-40), 37° C., 3 to 5 hours, thioflavin T fluorescence; replicate values; letter = synthetic lot; read-out: BASST (IC50 = μM)
T2 construct: […]; purchased Bachem, Torrance, Calif
T2 sequence (P05067 672-711 limits assumed): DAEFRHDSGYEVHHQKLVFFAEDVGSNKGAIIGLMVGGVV
Summary of the method: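 Self-seeded Aβ(1-40) fibril growth was run in 50 mM sodium phosphate pH 7.5, 100 mM NaCl, 0.02% NaN3, 1 M urea. Compounds were tested in 3-fold serial dilutions (top 100 μM final): 10 min on ice, then 3–5 h at 37 °C. Fibrils were read by 5 μM thioflavin T fluorescence (ex 440/em 485 nm).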

Aβ (1-40) peptide = target: T3, Aβ (1-40) peptide (Homo sapiens, UniProt P05067); experiment: BAPA (Beta-Amyloid Peptide Aggregation, pH 6.0, filtration); type: biochemical; conditions: Aβ (1-40) 33 μM, pH 6.0, 2 to 4 hours at room temperature; replicate values; letter = synthetic lot
T3 construct: 10 μL 0.5 mg/mL Aβ (1-40) peptide in 20% HFIP
T3 sequence (P05067 672-711 limits assumed): as above
Summary of the method: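 Aggregation of human Aβ (1-40) peptide was measured in an endpoint filtration assay. The peptide was first reduced to monomer with hexafluoroisopropanol (HFIP), then used at 33 μM so it would aggregate at pH 6.0, and incubated for 2 to 4 hours at room temperature. Filter plates were washed with 100 μL phosphate buffer, impregnated with Meltilex, and counted on a Microbeta counter with background correction.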

Aβ(1-40) [2] = target: T2, Aβ(1-40); experiment: BASSR (Beta-Amyloid Self-Seeding Radioassay), inhibitors of self-seeded amyloid fibril growth; type: biochemical; conditions: 30 μM soluble Aβ(1-40) + 125I-labeled Aβ(1-40), 37° C., 3 to 5 hours; replicate values; letter = synthetic lot; ppt = precipitate; V-shaped = inhibition followed by precipitation
Summary of the method: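 Self-seeded growth of ^125I-labeled Aβ(1-40) fibrils in 50 mM sodium phosphate pH 7.5, 100 mM NaCl, 0.02% NaN3, 1 M urea; compound (3-fold dilutions from 100 μM final) preincubated 10 min on ice, then 3–5 h at 37° C. Fibrils collected by vacuum filtration on 0.2 μm filters and counted for radioactivity.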

Compound	IC50 (Aβ (1-42))	melting point	IC50 (Aβ(1-40) [1])	IC50 (Aβ (1-40) peptide)	IC50 (Aβ(1-40) [2])
O=C(O)c1ccccc1Nc1ccc(CCCc2cccc([N+](=O)[O-])c2)cc1 [Example 21, 2-{4-[3-(3-Nitrophenyl)propyl]phenylamino}benzoic acid]	62.7 µM	164 to 167 °C	4 µM	26 µM	3 µM
Nc1ccc(CCc2ccc(Nc3ccccc3C(=O)O)cc2)cc1 [Example 24]	> 100 µM	198 to 201 °C	20 µM	91 µM	> 100 µM
CCCN(CCC)c1ccc(CCc2ccc(Nc3ccccc3C(=O)O)cc2)cc1.Cl [Example 25, 2-{4-[2-(4-Dipropylaminophenyl)ethyl]phenylamino}benzoic acid monohydrochloride]	21.1 µM	176 to 177 °C	4 µM	47 µM	> 100 µM
CN(C)c1cccc(CCCc2ccc(Nc3ccccc3C(=O)O)cc2)c1 [Example 28, 2-{4-[3-(3-Dimethylaminophenyl)propyl]phenylamino}benzoic acid]	42.3 µM	115 to 117 °C	5 µM	27 µM	> 100 µM
CCNc1ccc(CCCc2ccc(Nc3ccccc3C(=O)O)cc2)cc1 [Example 29, 2-{4-[3-(4-Ethylaminophenyl)propyl]phenylamino}benzoic acid]	38.1 µM	133 °C	4 µM	30 µM	> 100 µM
O=C(O)c1ccccc1Nc1ccc(CCc2cccc(N(Cc3ccccc3)Cc3ccccc3)c2)cc1 [Example 31, 2-{4-[2-(3-Dibenzylaminophenyl)ethyl]phenylamino}benzoic acid]	22.6 µM	95.5 to 97.5 °C	1 µM	86 µM	> 100 µM
Nc1cccc(CCc2ccc(Nc3ccccc3C(=O)O)cc2)c1 [Example 33, 2-{4-[2-(3-Aminophenyl)ethyl]phenylamino}benzoic acid]	> 100 µM	182 to 184 °C	> 100 µM	> 10 µM	> 100 µM
CC(=O)Nc1cccc(CCc2ccc(Nc3ccccc3C(=O)O)cc2)c1 [Example 36, 2-{4-[2-(3-Acetylaminopheny)ethyl]phenylamino}benzoic acid]	> 100 µM	213 to 215 °C	> 100 µM	149 µM	> 100 µM
CCCN(CCC)c1cccc(CCc2ccc(Nc3ccccc3C(=O)O)cc2)c1.Cl [Example 37, 2-{4-[2-(3-Dipropylaminophenyl)ethyl]phenylamino}benzoic acid monohydrochloride]	30.2 µM	189 to 193 °C	0.8 µM	25 µM	> 100 µM
CCCCN(CCCC)c1cccc(CCc2ccc(Nc3ccccc3C(=O)O)cc2)c1.Cl [Example 38, 2-{4-[2-(3-Dibutylaminophenyl)ethyl]phenylamino}benzoic acid monohydrochloride]	23.4 µM	175 to 180 °C	3 µM	184 µM	20 µM and 10 µM
CC(=O)Nc1ccc(CCCc2ccc(Nc3ccccc3C(=O)O)cc2)cc1 [Example 39, 2-{4-[3-(4-Acetylaminophenyl)propyl]phenylamino}benzoic acid]	> 100 µM	176 to 178 °C	20 µM	21 µM	> 100 µM
CC(=O)Nc1cccc(CCCc2ccc(Nc3ccccc3C(=O)O)cc2)c1 [Example 40, 2-{4-[3-(3-Acetylaminophenyl)propyl]phenylamino}benzoic acid]	> 100 µM	140 to 145 °C	3 µM	53 µM	> 100 µM
CCN(CC)c1cccc(CCc2ccc(Nc3ccccc3C(=O)O)cc2)c1.Cl [Example 41, 2-{4-[2-(3-Diethylaminophenyl)ethyl]phenylamino}benzoic acid monohydrochloride]	49.7 µM	166 to 171 °C	5 µM	42 µM	> 100 µM
Cl.O=C(O)c1ccccc1Nc1ccc(CCc2cccc(N3CCCCC3)c2)cc1 [Example 42, 2-{4-[2-(3-Piperidin-1-ylphenyl)ethyl]phenylamino}benzoic acid monohydrochloride]	55.6 µM	187 to 193 °C	2 µM	30 µM	> 100 µM
CCCCN1CCCc2cc(C=C3SC(=S)N(CC(=O)O)C3=O)ccc21 [Example 55, {5-[(1-Butyl-1,2,3,4-tetrahydro-6-quinolyl)methylidene]-4-oxo-2-thioxothiazolidin-3-yl}acetic acid]	5.1 µM	222 to 224 °C	2 µM	101 µM	12 µM
CCCCN1CCc2cc(C=C3SC(=S)N(CC(=O)O)C3=O)ccc21 [Example 56, {5-[(1-Butyl-2,3-dihydro-1H-indol-5-yl)methylidene]-4-oxo-2-thioxothiazolidin-3-yl}acetic acid]	11.5 µM	> 250 °C	3 µM	30 µM	> 100 µM
Cc1ccc(Nc2ccc(CCCc3ccc(Cl)c(Cl)c3)cc2)c(C(=O)O)c1 [Example 59, 2-{4-[3-(3,4-Dichloro-phenyl)propyl]phenylamino}-5-methyl-benzoic acid]	> 100 µM	98 to 99 °C	> 100 µM	3 µM	> 100 µM
CS(=O)(=O)NC(=O)c1ccccc1Nc1ccc(CCCc2ccc(Cl)c(Cl)c2)cc1 [Example 60, N-(2-{4-[3-(3,4-Dichloro-phenyl)-propyl]-phenylamino}-benzoyl)-methanesulfonamide]	40.7 µM	53 to 61 °C	3 µM	8 µM	> 100 µM
O=C(O)c1cc([N+](=O)[O-])ccc1Nc1ccc(CCc2cccc(C(F)(F)F)c2Cl)cc1 [Example 63]	9.43 µM	207 to 209 °C	1 µM	45 µM	15 µM (2×) and 18 µM
Nc1ccc(Nc2ccc(CCc3ccc(Cl)c(Cl)c3)cc2)c(C(=O)O)c1 [Example 64, 5-Amino-2-{4-[2-(3,4-Dichloro-phenyl)-ethyl]-phenylamino}-benzoic acid]	35 µM	137 to 142 °C	5 µM	> 100 µM	> 100 µM
O=C(O)c1cc([N+](=O)[O-])ccc1Nc1ccc(CCc2ccccc2)cc1 [Example 65, 5-Nitro-2-(4-phenethyl-phenylamino)-benzoic acid]	15.9 µM	198 to 202 °C	1.5 µM	> 100 µM	60 µM and 80 µM
O=C(O)c1ccccc1Nc1ccc(CCc2ccc(F)c(C(F)(F)F)c2)cc1 [Example 66, 2-{4-[2-(4-Fluoro-3-trifluoromethyl-phenyl)-ethyl]-phenylamino}-benzoic acid]	50.1 µM	148 to 150 °C	2.1 µM	> 100 µM	> 100 µM
O=C(O)c1cc([N+](=O)[O-])ccc1Nc1ccc(CCc2ccc(F)c(F)c2)cc1 [Example 67, 2-{4-[2-(3,4-Difluoro-phenyl)-ethyl]-phenylamino}-5-nitro-benzoic acid]	13.3 µM	203 to 208 °C	4 µM	> 60 µM	41 µM
O=C(O)c1cc([N+](=O)[O-])ccc1Nc1ccc(CCc2ccc(F)c(C(F)(F)F)c2)cc1 [Example 69, 2-{4-[2-(4-Fluoro-3-trifluoromethyl-phenyl)-ethyl]-phenylamino}-5-nitro-benzoic acid]	11.7 µM	190 to 193 °C	0.8 µM	58 µM	2 µM and 3.5 µM
O=C(O)c1ccccc1Nc1ccc(CCc2ccccc2)cc1 [Example 70, 2-(4-Phenethyl-phenylamino)-benzoic acid]	> 100 µM	173 to 182 °C	10 µM	65 µM	20 µM
